# Literature values in patent publication US20040052761A1, “Localized delivery system for cancer drugs, phenstatin, using N-isopropylacrylamide” (priority 2002, published 2004).
# How the values were obtained:
# tubulin [1] = details: reference (1)
# tubulin [2] = details: reference (1); remark: listed apart in the source
smiles,measurement,setting,value
COc1ccc(C(=O)c2cc(OC)c(OC)c(OC)c2)cc1O [Phenstatin],inhibition of the binding of colchicines to tubulin,tubulin [1],potent inhibitor
same,inhibition of tubulin polymerization,tubulin [2],potent inhibitor
